Test results reported in patent US20230192718A1, “BICYCLIC ENONE CARBOXYLATES AS MODULATORS OF TRANSPORTERS AND USES THEREOF” (NIROGY THERAPEUTICS, INC., priority 2018, published 2023).

Assays:
[1] = system: panel of solid and haemotological tumor cell lines; assay: MTS cell proliferation assay (cytotoxicity); assay type: cell-based; details: 72 hours incubation, MTS readout
Method: MTS Cell Proliferation Assay
The anti-proliferation effect of MCT inhibition was investigated across a panel of solid and haemotological tumor cell lines. Cells were routinely cultured in their appropriate growth medium. On day 1, between 5,000-20,000 cells/well were plated into 96-well plates. 100 μL of phosphate buffered saline solution was added to the external wells to prevent media evaporation. Plates were incubated in growth medium overnight at 37° C. in the presence of 5% CO2. On day 2, dry weight compound stocks were dissolved to a concentration of 20 mM in 100% DMSO. Compounds were further diluted in the assay medium; 10 mM lactate medium (without glucose, pyruvate, and glutamine) or RPMI medium or appropriate medium to generate a final dose range of 10 nM to 100 μM. Growth medium in the 96-well plate was replaced with the assay medium (10 mM lactate medium or RPMI medium or appropriate medium), and compounds were added to each well in the plate at different concentrations via serial dilution or pre-prepared solutions in assay medium. Plates were then incubated at 37° C. in the presence of 5% CO2 for a further 72 hours. On day 5, 20 μL of CellTiter 96 AQ MTS reagent was added to each well and the plate was returned to the incubator for 2 hours. In case of lactate medium, the medium was replaced by 100 μL of growth medium and 20 μL of CellTiter 96 AQ MTS reagent. MTS is bioreduced by NADPH or NADH produced by dehydrogenase enzymes in metabolically active cells into a coloured formazan product that is soluble in tissue culture medium. The amount of coloured formazan product is directly proportional to the number of living cells in culture. The absorbance of the plates was read on a Synergy H4 plate reader using […] measurement wavelength. Dose response curves were plotted and IC50 values were calculated using GraphPrism. The IC50 value is equivalent to the concentration of compound that causes 50% inhibition of growth calculated from the compound treated signal to the vehicle treated signal.
MTT Cell Proliferation Assay
The MIT assay is a colorimetric assay for assessing cell viability similar to MTS assay. NAD(P)H-dependent cellular oxidoreductase enzymes may, under defined conditions, reflect the number of viable cells present. These enzymes are capable of reducing the tetrazolium dye MTT 3-(4,5-dimethylthiazol-2-yl)-2,5-diphenyltetrazolium bromide to its insoluble formazan, which has a purple color. MTT powder is dissolved in Dulbecco's Phosphate Buffered Saline, pH=7.4 (DPBS) to 5 mg/ml as stock solution. Cells and test compounds in 96-well plates were prepared containing a final volume of 100 μL/well as described in the MTS assay. The assay was performed similar to MTS assay above. […] The absorbance was read at 570 nm.

[2] = system: MDA-MB-231 human breast carcinoma cells; assay: Tumor xenograft model (orthotopic, NOD-SCID mice); assay type: in vivo; details: nine days after start of treatment
Method: In order to test the in vivo efficacy of the invention, Example 9 was tested according to the protocol of Iorns to al. [Iorns E, Drews-Elger K, Ward T M, Dean S, Clarke J, Berry D, et al. (2012) A New Mouse Model for the Study of Human Breast Cancer Metastasis. PLoS ONE 7(10): e47995. https://doi.org/10.1371/journal.pone.0047995] Twenty-eight female NOD-SCID mice (Charles River) were injected orthotopically with basal MDA-MB-231 human breast carcinoma cells into the mammary fat pads. […] Mice were dosed qd with 30 mg/kg and 75 mg/kg p.o. of Example 9. At nine days after start of treatment tumor volume was roughly 50% of control in mice dosed at 30 mg/kg and roughly 30% of control in mice dosed at 75 mg/kg.

| Compound | IC50 [1] [µM] | tumor volume, % of control ([2]; 30 mg/kg p.o. qd) | tumor volume, % of control ([2]; 75 mg/kg p.o. qd) |
| --- | --- | --- | --- |
| COc1cccc(C(=O)N(C)c2cc3oc(=O)c(C(=O)O)cc3s2)c1 [Example 9, 2-(3-methoxy-N-methylbenzamido)-5-oxo-5H-thieno[3,2-b]pyran-6-carboxylic acid] | < 1 | roughly 50 % of control | roughly 30 % of control |
| CN(Cc1ccccc1)c1cc2oc(=O)c(C(=O)O)cc2s1 [Example 1, 2-(benzyl(methyl)amino)-5-oxo-5H-thieno[3,2-b]pyran-6-carboxylic acid] | < 1 | – | – |
| CN(Cc1ccc(F)cc1)c1cc2oc(=O)c(C(=O)O)cc2s1 [Example 2, 2-((4-fluorobenzyl)(methyl)amino)-5-oxo-5H-thieno[3,2-b]pyran-6-carboxylic acid] | < 1 | – | – |
| COc1ccccc1C(=O)N(C)c1cc2oc(=O)c(C(=O)O)cc2s1 [Example 17, 2-[(2-Methoxy-benzoyl)-methyl-amino]-5-oxo-5H-thieno[3,2-b]pyran-6-carboxylic acid] | < 1 | – | – |
